# Measured values from patent publication US20230201301A1 (priority 2020, published 2023).
# Key:
# [1] = system: sTREM-1; design: species or system transgenic mice B6.Cg-Tg(K18-ACE2)2Prlmn/J; conditions: mouse, in vivo, ip
# [2] = system: SARS-CoV-2; assay type: in vivo, transgenic mice B6.Cg-Tg(K18-ACE2)2Prlmn/J
# [3] = system: cytokines/chemokines; design: species or system transgenic mice B6.Cg-Tg(K18-ACE2)2Prlmn/J; conditions: mouse, in vivo
sequence,measurement,setting,value
LQEEDTGEYGCV (TLT-1 peptide) [LR12],plasma sTREM-1 level (median),[1],132.3 pg/mL
same,bodyweight loss day 0 to day 10,"[2]; 2 mg i.p. at t0+1 h, 24, 48, 72, 96 h, vs vehicle, LOCF, FIG. 2-3",significant reduced bodyweight loss
same,mortality (survival D0 to D10),"[2]; 2 mg i.p. at t0+1 h, 24, 48, 72, 96 h, vs vehicle, N=16 per treatment group, FIG. 1",significant reduction in mortality
same,mean respiratory score,"[2]; scale 0 (normal respiration) to 5 (dead mouse), up to day 10, 2 mg i.p., vehicle group 5, FIG. 5",3
same,mean clinical score,"[2]; scale 1 (healthy mouse) to 5 (dead mouse), up to day 10, 2 mg i.p., vehicle group 5, FIG. 4",3.5
same,IP-10 plasma concentration vs vehicle,[3],decrease
same,IFNα plasma concentration vs vehicle,[3]; ip,decrease
same,IL-6 plasma concentration vs vehicle,[3]; ip,decrease
same,IL-10 plasma concentration vs vehicle,[3]; ip,increase
